These results are taken from PubChem BioAssay (NCI).

Common to all, as to test: NCI-60 cell line screen, 48 h
The subject of test [1] is SN12C renal.
Test [2] concerns MOLT-4 leukemia.
For test [3], the system named is MALME-3M melanoma.
Test [4] relates to MDA-MB-231 breast.
In test [5] the test system is HS 578T breast.
Test [6] relates to OVCAR-5 ovarian.
In test [7] the test system is NCI-H460 lung.
Test [8] relates to K-562 leukemia.
Test [9] deals with UO-31 renal.
In test [10] the test system is MDA-MB-435.

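48-hour exposure; five concentrations; linearly interpolated endpoints. TGI marks complete inhibition of growth.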

For `CC1CCc2sc3[nH]c(=S)n(-c4ccccc4)c(=O)c3c2C1` (stereo not given), the TGI in [1], in test [2], in test [3], in [4], in [5] and in test [6] was more than 100 µM in each case. Besides, the TGI in test [7], in test [8], in test [9] and in [10] was more than 100 µM each time.
For the molecule `CC12CCC(C(Nc3ccccn3)C1=O)C2(C)C` (stereo not given), the TGI in test [1], in test [2], in [3], in [4], in test [5] and in test [6] was more than 100 µM in each case. Further, the TGI in test [7], in [8], in test [9] and in test [10] was more than 100 µM in each case.
As for `C[C@]1(O)O[C@@H]2OCC[C@@H]2C2=C1C(=O)c1ccccc1C2=O`, the TGI in test [1] is 51.1 µM; in [2], more than 100 µM; in test [3], 29.5 µM; in test [4] it was 49.3 µM; in test [5], 82.4 µM; in [6], 32.4 µM. Moreover, the TGI in test [7] was determined as 32.8 µM; in test [8] it was 59.5 µM; in [9], 31.8 µM; in [10], 19.5 µM.
With `COC(=O)c1cc(C(=CCC[C@H]2CC[C@@]3(C)C(CCC4C3CC[C@@]3(C)C4CC[C@@H]3C(C)CCCC(C)C)C2)c2cc(Cl)c(OC(=O)c3ccccc3)c(C(=O)OC)c2)cc(Cl)c1OC(=O)c1ccccc1` (stereo not given in full), the TGI in test [1], in test [2], in test [3], in test [4], in [5] and in test [6] was more than 10 µM each time. Further, the TGI in test [7], in [8], in [9] and in test [10] was more than 10 µM in each case.
In the case of `O=C(N/N=C\c1ccccc1)Nc1cccc2ccccc12`, the TGI in test [1] is 45.9 µM; in test [2], more than 100 µM; in test [3] it was more than 100 µM; in test [4], more than 100 µM; in test [5], 66.7 µM; in test [6], more than 100 µM. Besides, the TGI in test [7], in [8], in test [9] and in [10] was more than 100 µM each time.
`c1ccc(C(CCN2CC3CCC(CC3)C2)c2ccccc2)cc1`: the TGI in test [1] stood at 84.7 µM; in test [2], 42.6 µM; in [3], 29.9 µM; in [4] it was 38.3 µM; in [5], 50.5 µM; in test [6], 56.8 µM. Moreover, the TGI in test [7] was determined as 28.9 µM; in [8], 47.7 µM; in test [9] it was 45.7 µM; in test [10] it was 65.4 µM.
Take `CC(=O)OCC1OC(O/C=C(\CN=[N+]=[N-])C(C)=O)C(OC(C)=O)C(OC(C)=O)C1OC(C)=O` (stereo not given): the TGI in test [1] was 29.5 µM; in [2], 10.5 µM; in test [3], 10.3 µM; in [4], 27.7 µM; in [5] it was more than 100 µM; in test [6], 32.9 µM. Besides, the TGI turned out to be 48.9 µM in test [7], 23.6 µM in test [8], 21.4 µM in [9] and 26.7 µM in [10].
As for `NS(=O)(=O)c1nnc(NS(=O)(=O)c2ccccc2C(=O)O)s1`, the TGI in test [1], in [2], in test [3], in test [4], in [5] and in [6] was more than 100 µM throughout. Besides, the TGI in test [7], in test [8], in test [9] and in test [10] was more than 100 µM in each case.
Regarding `Clc1c(C(Cl)(Cl)Cl)nsc1N1CCCCC1`, the TGI in test [1] was 80.9 µM; in test [2], 37.3 µM; in test [3] it was 40.8 µM; in test [4] it was 77.5 µM; in test [5] it was more than 100 µM; in test [6], more than 100 µM. In addition, the TGI in test [7] is more than 100 µM; in [8], 53.2 µM; in [9] it was 44.3 µM; in [10], 66.1 µM.
As to `Cc1nc2ccccc2n1Cc1nnc(N)o1`, the TGI in [1], in test [2], in test [3], in test [4], in [5] and in test [6] was more than 100 µM in each case. The TGI in test [7] is more than 100 µM; in test [8] it was more than 100 µM; in [9], more than 100 µM; in [10] it was 21.3 µM.
With `CC(=O)N1c2ccccc2C(C)C1c1[nH]c2ccccc2c1C` (stereo not given), the TGI was 33.9 µM in test [1]; 77.3 µM in test [2]; more than 100 µM in [3]; 53.5 µM in test [4]; 42.4 µM in test [5]; 34 µM in test [6]. Besides, the TGI in test [7] was more than 100 µM; in test [8], more than 100 µM; in [9], 47.6 µM; in test [10] it was 50.4 µM.
